For series [1], the system named is glioblastoma multiforme (GBM) cell lines. Briefly: In vitro cytotoxicity in glioblastoma multiforme (GBM) cell lines. The class given is cell-based. From the text: (§1) FIG. 3—In vitro efficacy of WP1874 in ependymoma, normal kidney, glioblastoma, and medulloblastoma cell lines.
A short description of series [2]: Solubility in water and 5% dextrose at room temperature. The class given is physicochemical. The protocol:
To improve solubility and develop IV injectable formulation, different salts of WP1244 were prepared.

The next series has as its system ependymoma cell lines. Briefly: In vitro cytotoxicity in ependymoma cell lines. The series is classed as cell-based.
Excerpt: as §1

A further series is described as follows: CNS uptake of WP1244. To be noted: in vivo.
In series [3] the test system is orthotopic U87 model of GBM. Briefly: In vivo efficacy in orthotopic U87 GBM model. As to conditions: nude athymic mice, intracranial U87; three doses at 1 and 5 mg/kg IP from day 10. The method, then: FIG. 2—In vivo efficacy of WP1244 in orthotopic U87 GBM model. Eighteen nude athymic mice were implanted intracranially with 0.5 mln U87 GBM cells. Animals were randomized into three experimental groups (n=6). The treatment was initiated on day 10 and consisted of three doses ow WP1244 at 1 and 5 mg/kg given IP.

The structures appear in SMILES notation.

As for `COc1cccc2c1C(=O)c1c(O)c3c(c(O)c1C2=O)C[C@](O)(C(C)=O)C[C@H]3OC1CC(NCc2ccc(NC(=O)c3cc(NC(=O)c4cc(NC(=O)c5ccccn5)cn4C)cn3C)cc2)C(O)C(C)O1` (stereo partly shown) [WP1244], the Cytotoxicity result (in series [1]; with ependymoma cell lines) was “picomolar to low nanomolar” throughout. Also, the “Solubility in 5% Dextrose” value in series [2] (5% dextrose, room temperature) is “Lower than 0.25 mg/mL”. Further, the “Solubility (in words)” value in series [2] (salt forms compared for IV injectable formulation) is “poor solubility”. In addition, the “Solubility in H2O” value in series [2] (water, room temperature) is recorded as “Lower than 0.25 mg/mL”. Also, in “CNS uptake of WP1244”, the CNS uptake entry was “especially high CNS uptake”. In series [3], the “In vivo activity in orthotopic U87 GBM model” value was “demonstrated in vivo activity”.

Source of the values: patent US20250009727A1, “WATER-SOLUBLE SALTS OF DNA BINDING AGENTS” (BOARD OF REGENTS, THE UNIVERSITY OF TEXAS SYSTEM, priority 2021, published 2025).
